One experiment relates to Skov3 (Muc16−). The experiment in a line: In vitro cytotoxicity (Cell Titer-Glo, 120 hrs) on Skov3 cells. The class given is cell-based. To be noted: Homo sapiens, SK-OV-3, Table 7, Experiment #2, read-out: Cell Killing on Skov3 (Muc16−) EC50. The source says:
(§1) FOLR1-positive KB or Igrov1 cells, FOLR1-negative A549 cells, Her2 positive SKBR3 cells and Her2 negative MDA-MB-468 cells, Muc16-positive OVCAR3 and Mucl6-negative Skov3 were maintained in Ham's F-12: high glucose DMEM (50:50) (Corning) supplemented with 10% heat-inactivated fetal bovine serum (Corning), 1% Penicillin/Streptomycin (Corning) and 2 mmol/L-glutamax (Thermo Fisher Scientific). Adherent cells were washed twice with PBS, harvested with Acutase and counted by the Vi-CELL cell viability analyzer. A total of 625 cells were seeded in each well of a 384-well flat bottom white polystyrene plate. ADC, ISAC, and iADC conjugates were formulated at 2-fold starting concentration in the cell culture medium and filtered through MultiScreenHTS 96-Well Filter Plates (Millipore; Billerica, Mass.). Serial dilutions of test samples (1:3 serial dilution starting from 100 nM) was added into treatment wells. Assay plates were cultured at 37° C. in a CO2 incubator for 120 hrs before assay. For cell viability measurement, 30 μL of Cell Titer-Glo® reagent (Promega Corp. Madison, Wis.) was added into each well, and plates were processed as per product instructions. Relative luminescence was measured on an ENVISION® plate reader (Perkin-Elmer; Waltham, Mass.). Relative luminescence readings were converted to percent viability using untreated cells as controls. […]
Background: Cellular ATP, detected with luciferase, serves as a proxy for viable cell number.

For the next experiment, the system named is MDA-MB-468 (Her2-). Put plainly: In vitro cytotoxicity (Cell Titer-Glo, 120 hrs) on MDA-MB-468 cells. In kind it is cell-based. As to conditions: Homo sapiens, Table 6, Experiment #2, read-out: Cell Killing on MDA-MB-468 (Her2-) EC50.
Source text: as §1

For another experiment, the system named is FolR1 + Igrov1 Cells. Put plainly: In vitro cytotoxicity (Cell Titer-Glo, 120 hrs) on Igrov1 cells. In kind it is cell-based.
Source text: as §1

A further experiment has as its system SKBR3 (Her2+). The experiment in a line: In vitro cytotoxicity (Cell Titer-Glo, 120 hrs) on SKBR3 cells. To be noted: Homo sapiens, SK-BR-3, Table 6, Experiment #2, read-out: Cell Killing on SKBR3 (Her2+) EC50. The class given is cell-based.
Source text: as §1

A further experiment deals with A549 (FolR1−). Put plainly: In vitro cytotoxicity (Cell Titer-Glo, 120 hrs) on A549 cells. As to conditions: Homo sapiens, Table 21, Example 28, homogeneous iADCs. In kind it is cell-based.
Source text: as §1

A further experiment deals with Dendritic cells (DC). Put plainly: Immune cell activation in PBMCs with KB cells: DCs (CD86 on CD14-/Lin-/HLA-DR+/CD123+ cells). The class given is cell-based, human. As to conditions: Example 29; PBMCs from two donors with KB cells, two days. On the procedure: (§2) This example evaluates the ability of three homogeneous iADCs to stimulate the activation of different immune cell populations (monocyte, B cell, and DCs). Free TLR7 agonists, free hemiasterlin warhead, anti-FolRα-ADC, and the corresponding ISACs were used as controls in the experiment. PBMCs from two healthy donors were isolated using similar protocol as descripted in previous examples. PBMCs were treated with three homogeneous iADC and controls in the presence of FolR1 positive KB cells for two days. The immune cells were then stained with different cell population markers and activation markers. Monocyte activation was indicated as increase of CD86 expression on CD14+ cells. B cell activation was indicated as increase of CD86 expression on CD14-/Lin+/HLA-DR+ cells. Dendritic cells (DC) activation was indicated as increase of CD86 expression on CD14-/Lin-/HLA-DR+/CD123+ cells.

For the next experiment, the system named is B cells. Put plainly: Immune cell activation in PBMCs with KB cells: B cells (CD86 on CD14-/Lin+/HLA-DR+ cells). The class given is cell-based, human. To be noted: Example 29; PBMCs from two donors with KB cells, two days. On the procedure:
as §2

The subject of a further experiment is monocytes. The experiment in a line: Immune cell activation in PBMCs with KB cells: monocytes (CD86 on CD14+ cells). To be noted: Example 29; PBMCs from two donors with KB cells, two days. In kind it is cell-based, human. How it is done:
as §2

A further experiment relates to KB (FolR1+). The experiment in a line: In vitro cytotoxicity (Cell Titer-Glo, 120 hrs) on KB cells. The class given is cell-based. To be noted: Homo sapiens, Table 21, Example 28, homogeneous iADCs.
Source text: as §1

The next experiment relates to monocytes in human PBMCs. The experiment in a line: Monocyte activation (% CD86+ within CD14+) in isolated monocytes or PBMCs co-cultured with FolR1 positive KB cells. The class given is cell-based. As to conditions: 48 hr co-culture with FolR1 positive KB cells. On the procedure: PBMCs were isolated from human blood donors by Leukosep tube and Nycoprep 1.077 buffer according to the manufacture's recommendation. CD14+ monocytes were isolated by immunomagnetic negative selection from fresh PBMCs (StemCell #19359—EasySep Human Monocyte Isolation Kit). PBMCs and monocytes were cultured in RPMI supplemented with 10% heat-inactivated fetal bovine serum from Hyclone, 1% Penicillin/Streptomycin and 2 mmol/L-glutamax before the assay. On the day of assay, 300,000 of PBMC or 30,000 of monocytes in 40 ul of culture medium were seeded in 96-well cell culture plates. 40 ul of the test articles (formulated at 3× of starting concentration, 1:10 serial dilution) and 40 ul of 10,000 Oregon green stained target cells were then added into the well. The cell mixtures were co-cultured in the presence of test articles and 10 ug/ml LPS-RS for 48 hr. […] Cells were washed, fixed with 2% PFA overnight, and read on the Attune NxT cytometer (Thermo Fisher). […]
PBMCs were isolated from human blood donors by Leukosep tube and Nycoprep 1.077 buffer according to the manufacture's recommendation. […] Cells were washed, fixed with 2% PFA overnight, and read on the Attune NxT cytometer (Thermo Fisher). […]

Read-outs that look alike come from different tables or passages of the source.

One may read the EC50 as the concentration at which the effect is half-maximal.

`CCCCc1nc2c(N)nc3ccccc3c2n1Cc1ccc(CN)cc1` [Compound 4]: the concentration giving a half-maximal response (EC50) in the experiment with Skov3 (Muc16−) is over 0.1 µM; in the experiment on MDA-MB-468 (Her2-), over 0.1 µM; in the experiment on FolR1 + Igrov1 Cells (Homo sapiens, IGROV-1, 120 h, read-out: Cell Killing on FolR1 + Igrov1 Cells EC50), over 0.1 µM; with SKBR3 (Her2+), over 0.1 µM.

On to `CCCCc1nc2c(N)nc3ccccc3c2n1OCCCCN` [Compound 5], for which the EC50 in the experiment with FolR1 + Igrov1 Cells (Experiment #1, 120 hrs, NK = no cell killing detected) was over 0.1 µM.

Regarding `CCCCCNc1nc(N)nc2ccn(Cc3ccc(CN4CC5(CNCCO5)C4)cc3OC)c12` [Compound 7, 5-(4-((5-oxa-2,8-diazaspiro[3.5]nonan-2-yl)methyl)-2-methoxybenzyl)-N4-pentyl-5H-pyrrolo[3,2-d]pyrimidine-2,4-diamine], the EC50 with A549 (FolR1−) and in the experiment with KB (FolR1+) was over 0.1 µM throughout. Further, the “activation of DCs, in words” value in the experiment on Dendritic cells (DC) was “much more potent”. Moreover, the “activation of B cells, in words” value with B cells was “much more potent”. In addition, the “activation of monocytes, in words” value in the experiment with monocytes is given as “much more potent”.

Consider `CCCCc1nc2c(N)nc3ccccc3c2n1Cc1ccc(CNC(=O)OCc2ccc(NC(=O)[C@H](CCCNC(N)=O)NC(=O)[C@@H](NC(=O)CCOCCOCCOCCOCCNC(=O)CCC(=O)N3Cc4ccccc4C#Cc4ccccc43)C(C)C)cc2)cc1` [Compound 401], for which the “monocyte activation, in words” value in the experiment on monocytes in human PBMCs was “activated monocyte”.

Values taken from patent US11744876B2, “Immunomodulator antibody drug conjugates and uses thereof” (Sutro Biopharma, Inc., priority 2019, dated 2023).
